From US9018208B2, “Heterocycles as potassium channel modulators” (Icagen Inc., priority 2007, dated 2015)
Read-outs that look alike come from different tables or passages of the source.

Test system: SH-SY5Y M-currents (KCNQ2, KCNQ3 and KCNQ5)
Experiment: SH-SY5Y native cell line FLIPR assay (voltage-sensitive dye DiBAC)
Type: cell-based, mouse neuroblastoma, rat glioma hybrid cell line
Text: SH-SY5Y cells, a mouse neuroblastoma, rat glioma hybrid cell line, functionally express M-currents (Robbins et al., J. Physiol. 451: 159-85 (1992). SH-SY5Y M-currents are likely comprised, at least in part, of KCNQ2, KCNQ3 and KCNQ5, since these genes are reportedly robustly expressed in differentiated SH-SY5Y cells (Selyanko et al., J. Neurosci. 19(18): 7742-56 (1999); Schroeder et al., J. Biol. Chem. 275(31): 24089-95 (2000)) and KCNQ3 dominant-negative constructs reduce M-current density in these cells (Selyanko et al., J. Neurosci. 22(5): RC212 (2002).
SH-SY5Y were maintained in DMEM (high glucose) supplemented with 10% fetal bovine serum, 0.05 mM pyridoxine, 0.1 mM hypoxanthine, 400 nM aminopterin, […], 50 μgml^−1 gentamycin and 10 mM HEPES, in an incubator at 37° C. with a humidified atmosphere of 5% CO2. Cells were plated in 96 well plates differentiated by addition of 10 μM PGE1 and 50 μM isomethylbutylxanthine to the growth media prior to study.
Differentiated SH-SY5Y cells were loaded with voltage-sensitive dye by incubation in Earls Balanced Salt Solution (EBSS) containing […] DiBAC for 1 h. Following loading, drug solution containing […] DiBAC was added to each well. Changes in fluorescence were measured every 30 s for 25 min. The maximum change in fluorescence was measured and expressed as a percentage of the maximum response obtained in the presence of a positive control agent.

[1] = FLIPR assay, SH-SY5Y native cell line, Table 2, read-out: SH-SY5Y EC50
[2] = FLIPR assay, SH-SY5Y native cell line, Table 1, read-out: SH-SY5Y EC50
[3] = SH-SY5Y native cell line, FLIPR assay (Table 3), read-out: SH-SY5Y EC50

| EC50 [1] [nM] | Molecule | other results |
| --- | --- | --- |
| < 500 | CC(C)(C)C(F)(F)C(=O)Nc1nc2ccc(F)cn2c1-c1ccc(C(F)(F)F)cc1 [Compound 202, 2,2-difluoro-N-(6-fluoro-3-(4-(trifluoromethyl)phenyl)imidazo[1,2-a]pyridin-2-yl)-3,3-dimethylbutanamide] | – |
| – | C=Cc1c(NC(=O)Cc2ccc(F)cc2)nc2ccc(F)cn12 [Compound 425, N-(6-fluoro-3-vinylimidazo[1,2-a]pyridin-2-yl)-2-(4-fluorophenyl)acetamide] | EC50 (FLIPR assay, SH-SY5Y native cell line, Table 5, read-out: SH-SY5Y EC50): 500 to 3000 nM |
| < 500 | O=C(Cc1ccccc1)Nc1nc2ccc(F)cn2c1-c1cccc(Cl)c1 [Compound 155, N-(3-(3-chlorophenyl)-6-fluoroimidazo[1,2-a]pyridin-2-yl)-2-phenylacetamide] | – |
| 3000 to 10000 | CO[C@@H](C(=O)Nc1nc2ccc(F)cn2c1-c1ccc(OC(F)(F)F)cc1)c1ccccc1 [Compound 253, (R)—N-(6-fluoro-3-(4-(trifluoromethoxy)phenyl)imidazo[1,2-a]pyridin-2-yl)-2-methoxy-2-phenyl acetamide] | – |
| – | CC1(CC(=O)Nc2nc3ccc(C(F)(F)F)nn3c2C2CC2)CCCC1 [Compound 445, N-(3-cyclopropyl-6-(trifluoromethyl)imidazo[1,2-b]pyridazin-2-yl)-2-(1-methylcyclopentyl)acetamide] | EC50 (SH-SY5Y native cell line, FLIPR assay (Table 6), read-out: SH-SY5Y EC50): < 500 nM |
| 500 to 3000 | O=C(NCc1ccc(F)cc1)Nc1nc2ccc(F)cn2c1-c1ccc(C(F)(F)F)cc1 [Compound 214, 1-(6-fluoro-3-(4-(trifluoromethyl)phenyl)imidazo[1,2-a]pyridin-2-yl)-3-(4-fluorobenzyl)urea] | – |
| – | O=C(Cc1ccc(F)cc1F)Nc1nc2ccc(C(F)(F)F)cn2c1C1CC1 [Compound 79, N-(3-cyclopropyl-6-(trifluoromethyl)imidazo[1,2-a]pyridin-2-yl)-2-(2,4-difluorophenyl)acetamide] | EC50 [2]: 500 to 3000 nM |
| < 500 | Cc1cc(-c2c(NC(=O)CC(C)(C)C)nc3ccc(F)cn23)ccc1Cl [Compound 257, N-(3-(4-chloro-3-methylphenyl)-6-fluoroimidazo[1,2-a]pyridin-2-yl)-3,3-dimethylbutanamide] | – |
| – | CC(CC(=O)Nc1nc2ccc(C(F)(F)F)cn2c1-c1cc(C(F)(F)F)ccn1)C(F)(F)F (stereo not drawn) [Compound 399, 4,4,4-trifluoro-3-methyl-N-(6-(trifluoromethyl)-3-(4-(trifluoromethyl)pyridin-2-yl)imidazo[1,2-a]pyridin-2-yl)butanamide] | EC50 [3]: 500 to 3000 nM |
| – | Cc1cccc2nc(NC(=O)CC(C)(C)C)cn12 [Compound 9, 3,3-dimethyl-N-(5-methylimidazo[1,2-a]pyridin-2-yl)butanamide] | EC50 [2]: 3000 to 10000 nM |
| < 500 | CC(C)(C)CC(=O)Nc1nc2ccc(C(F)(F)F)cn2c1-c1ccc(OC(F)(F)F)cc1 [Compound 178, 3,3-dimethyl-N-(3-(4-(trifluoromethoxy)phenyl)-6-(trifluoromethyl)imidazo[1,2-a]pyridin-2-yl)butanamide] | – |
| < 500 | N-(6-fluoro-3-(3-(trifluoromethyl)phenyl)imidazo yl)cycloheptanecarboxamide [Compound 294] | – |
| 3000 to 10000 | O=C(Cc1ccc(F)cc1)Nc1nc2ncccn2c1-c1cccc(OC(F)(F)F)c1 [Compound 324, 2-(4-fluorophenyl)-N-(3-(3-(trifluoromethoxy)phenyl)imidazo[1,2-a]pyrimidin-2-yl)acetamide] | – |
| < 500 | CC(C)(C)CCC(=O)Nc1nc2ccc(F)cn2c1-c1ccc(C(F)(F)F)cc1 [Compound 188, N-(6-fluoro-3-(4-(trifluoromethyl)phenyl)imidazo[1,2-a]pyridin-2-yl)-4,4-dimethylpentanamide] | – |
| – | CC(C)(C)Cc1c(NC(=O)CC2(C)CCCC2)nc2ccc(C(F)(F)F)cn12 [Compound 34, 2-(1-methylcyclopentyl)-N-(3-neopentyl-6-(trifluoromethyl)imidazo[1,2-a]pyridin-2-yl)acetamide] | EC50 [2]: < 500 nM |
| 500 to 3000 | O=C(Cc1ccc(F)cc1)Nc1nc2ccc(F)cn2c1-c1ccccc1 [Compound 92, N-(6-fluoro-3-phenylimidazo[1,2-a]pyridin-2-yl)-2-(4-fluorophenyl)acetamide] | EC50 (read-out: SH-SY5Y_EC50): 732 nM |
| – | Cc1nc(-c2c(NC(=O)CC(C)(C)C)nc3ccccn23)cs1 [Compound 416, 3,3-dimethyl-N-(3-(2-methylthiazol-4-yl)imidazo[1,2-a]pyridin-2-yl)butanamide] | EC50 [3]: 3000 to 10000 nM |

| EC50 [1] [nM] | Molecule | other results |
| --- | --- | --- |
| 500 to 3000 | CC(C)(C)NC(=O)Nc1nc2ccc(F)cn2c1-c1ccc(C(F)(F)F)cc1 [Compound 215, 1-tert-butyl-3-(6-fluoro-3-(4-(trifluoromethyl)phenyl)imidazo[1,2-a]pyridin-2-yl)urea] | – |
| 500 to 3000 | C#CCCCC(=O)Nc1nc2ccc(F)cn2c1-c1ccc(F)cc1 [Compound 151, N-(6-fluoro-3-(4-fluorophenyl)imidazo[1,2-a]pyridin-2-yl)hex-5-ynamide] | – |
| 500 to 3000 | CC(C)(C)CC(=O)Nc1nc2ccc(C#N)cn2c1-c1ccc(F)cc1 [Compound 159, N-(6-cyano-3-(4-fluorophenyl)imidazo[1,2-a]pyridin-2-yl)-3,3-dimethylbutanamide] | – |
| 500 to 3000 | COc1ccn2c(-c3ccc(C(F)(F)F)cc3)c(NC(=O)CC(C)(C)C)nc2c1 [Compound 245, N-(7-methoxy-3-(4-(trifluoromethyl)phenyl)imidazo[1,2-a]pyridin-2-yl)-3,3-dimethylbutanamide] | – |
| < 500 | O=C(CC1CCCC1)Nc1nc2ccccn2c1-c1ccc(C(F)(F)F)cc1 [Compound 224, 2-cyclopentyl-N-(3-(4-(trifluoromethyl)phenyl)imidazo[1,2-a]pyridin-2-yl)acetamide] | – |
| – | CCC(C)CC(=O)Nc1nc2ccc(C(F)(F)F)cn2c1CC(C)(C)C (stereo not drawn) [Compound 58, 3-methyl-N-(3-neopentyl-6-(trifluoromethyl)imidazo[1,2-a]pyridin-2-yl)pentanamide] | EC50 [2]: < 500 nM |
| 3000 to 10000 | O=C(Cc1ccc(F)cc1)Nc1nc2ncc(Cl)cn2c1-c1cccc(Cl)c1 [Compound 320, N-(6-chloro-3-(3-chlorophenyl)imidazo[1,2-a]pyrimidin-2-yl)-2-(4-fluorophenyl) acetamide] | – |
| < 500 | O=C(Cc1ccc(F)cc1)Nc1nc2ccc(F)cn2c1-c1ccc(F)cc1 [Compound 102, N-(6-fluoro-3-(4-fluorophenyl)imidazo[1,2-a]pyridin-2-yl)-2-(4-fluorophenyl)acetamide] | – |
| – | Cc1ccc2nc(NC(=O)CC(C)(C)C)c(-c3cc(C(F)(F)F)ccn3)n2n1 [Compound 394, 3,3-dimethyl-N-(6-methyl-3-(4-(trifluoromethyl)pyridin-2-yl)imidazo[1,2-b]pyridazin-2-yl)butanamide] | EC50 [3]: 3000 to 10000 nM |
| – | CC(C)(C)CC(=O)Nc1nc2ccc(F)cn2c1-c1ccc(C#N)nc1 [Compound 350, N-(3-(6-cyanopyridin-3-yl)-6-fluoroimidazo[1,2-a]pyridin-2-yl)-3,3-dimethylbutanamide] | EC50 [3]: 500 to 3000 nM |
| – | Cc1cccc2nc(NC(=O)CC(C)(C)C)c(C3CC3)n12 [Compound 81, N-(3-cyclopropyl-5-methylimidazo[1,2-a]pyridin-2-yl)-3,3-dimethylbutanamide] | EC50 [2]: 3000 to 10000 nM |
| < 500 | Cc1ccc(-c2c(NC(=O)CC(C)(C)C)nc3ccc(F)cn23)cc1Cl [Compound 258, N-(3-(3-chloro-4-methylphenyl)-6-fluoroimidazo[1,2-a]pyridin-2-yl)-3,3-dimethylbutanamide] | – |
| < 500 | O=C(Cc1ccc(Cl)cc1)Nc1nc2ccc(F)cn2c1-c1ccc(OC(F)(F)F)c(F)c1 [Compound 310, 2-(4-chlorophenyl)-N-(6-fluoro-3-(3-fluoro-4-(trifluoromethoxy)phenyl)imidazo[1,2-a]pyridin-2-yl)acetamide] | – |
| 500 to 3000 | CC(C)(C)CC(=O)Nc1nc2ccc(F)cn2c1-c1ccc(C#N)c(F)c1 [Compound 197, N-(3-(4-cyano-3-fluorophenyl)-6-fluoroimidazo[1,2-a]pyridin-2-yl)-3,3-dimethylbutanamide] | – |
| – | CC(C)(C)CC(=O)Nc1nc2ccc(F)cn2c1-c1ccc(F)nc1 [Compound 349, N-(6-fluoro-3-(6-fluoropyridin-3-yl)imidazo[1,2-a]pyridin-2-yl)-3,3-dimethylbutanamide] | EC50 [3]: 500 to 3000 nM |
| – | C[C@@H](CC(=O)Nc1nc2ccc(C(F)(F)F)cn2c1C1CC1)C(F)(F)F [Compound 90, (S)—N-(3-cyclopropyl-6-(trifluoromethyl)imidazo[1,2-a]pyridin-2-yl)-4,4,4-trifluoro-3-methylbutanamide] | EC50 [2]: 500 to 3000 nM |
| – | Cc1ccc2nc(NC(=O)CC(C)(C)C)c(-c3nccs3)n2n1 [Compound 387, 3,3-dimethyl-N-(6-methyl-3-(thiazol-2-yl)imidazo[1,2-b]pyridazin-2-yl)butanamide] | EC50 [3]: 3000 to 10000 nM |

| Molecule | EC50 [1] [nM] | other results |
| --- | --- | --- |
| CC(C)(C)OCC(=O)Nc1nc2ccc(F)cn2c1-c1ccc(OC(F)(F)F)cc1 [Compound 208, 2-tert-butoxy-N-(6-fluoro-3-(4-(trifluoromethoxy)phenyl)imidazo[1,2-a]pyridin-2-yl)acetamide] | 3000 to 10000 | – |
